According to ChEMBL document CHEMBL1142041, “3-(2,5-Dihydro-1H-pyrrol-2-ylmethoxy)pyridines: synthesis and analgesic activity” (2005):

Assays:
[1] = test system: Mus musculus; assay: Analgesic activity of compound in phase II mouse formalin activities at a dose range of 0.4-6.3 mg, s.c.; type: functional; conditions: sc
[2] = test system: Mus musculus; assay: Analgesic activity of compound in phase I mouse formalin activities at a dose range of 0.4-6.3 mg, s.c.; type: functional; conditions: sc
[3] = test system: Mus musculus; assay: Analgesic activity of compound in phase II mouse formalin activities at a dose range of […], s.c.; exhibited confounding effects; type: functional, organism-based
[4] = test system: Mus musculus; assay: Analgesic activity of compound in phase I mouse formalin activities at a dose range of […], s.c.; exhibited confounding effects; type: functional, organism-based
[5] = test system: Mus musculus; assay: Analgesic activity of compound in phase I mouse formalin activities at a dose range of 0.4-3.1 mg, s.c.; type: functional; conditions: sc
[6] = test system: Mus musculus; assay: Analgesic activity of compound in phase II mouse formalin activities at a dose range of 0.4-3.1 mg, s.c.; type: functional; conditions: sc

Row | SMILES | ED50 [3] | ED50 [4] | other results
1 | Clc1ccc(OC[C@H]2C=CCN2)cn1 | – | – | ED50 [1]: 1.6 µmol/kg; ED50 [2]: 1.6 µmol/kg
2 | Clc1ccc(OC[C@@H]2C=CCN2)cn1 | Counfounding effects | Counfounding effects | –
3 | C[C@]1(CNc2ccc(Cl)nc2)C=CCN1 | Counfounding effects | Counfounding effects | –
4 | C[C@@]1(COc2ccc(Cl)nc2)C=CCN1 | Counfounding effects | Counfounding effects | –
5 | C[C@]1(COc2cccnc2)C=CCN1 | Counfounding effects | Counfounding effects | –
6 | Clc1ccc(OC[C@H]2CCN2)cn1 [TEBANICLINE] | – | – | ED50 [5]: 0.9 µmol/kg; ED50 [6]: 0.8 µmol/kg
7 | C[C@]1(COc2ccc(Cl)nc2)C=CCN1 | Counfounding effects | Counfounding effects | –
